Experimental findings from PubChem BioAssay (NCI) are described below.

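Each compound was tested at five concentrations against cells in 96-well plates for 48 hours. Definition used: TGI = concentration required for complete inhibition of growth.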 A value given as a limit tells only on which side of the number the result lay.

The test system of one test is MDA-MB-231 breast. As to the kind of experiment: NCI-60 cell line screen, 48 h.
Molecule `Cc1ccc(C(=O)N/N=C(\N=Nc2ccccc2[N+](=O)[O-])c2ccc(N(C)C)cc2)cc1` gave a TGI above 100 µM.

As to `CC(C)C1=C(Cc2ccccc2)C(=O)O/C1=C\c1cc(Cl)c(O)c(Cl)c1`, the TGI amounted to 33.8 µM.

The molecule `Cc1cc(OCc2nnc3n2N=C(c2cc(F)c(Cl)cc2Cl)/C(=C/c2ccc(Cl)cc2)S3)ccc1Cl` came in with a TGI above 100 µM.

The test system of the next test is MDA-N. The test can be described thus: NCI-60 cell line screen, 48 h.
Consider `N#C/C(N)=C(\C#N)NC=NCc1ccccc1`, for which the TGI is above 100 µM.

`Cc1c(O)c(C)c2c(C)cn(C(=O)C(C)(C)C)c2c1C` displayed a TGI of 38.8 µM.

`CN1C(=O)C(CC=O)(C(C)(C)C)c2ccccc21` (stereo not drawn) yielded a TGI above 100 µM.

Molecule `COc1ccc(/C=N/n2c(-c3ccccc3)n[nH]c2=O)cc1` came in with a TGI above 100 µM.

`O=C1C[C@H]2[C@@H](O1)[C@@H](O)CN1C(=O)c3ccccc3[C@H]21` displayed a TGI above 100 µM.

Regarding `O=P(O)(Cc1ccccc1)c1ccccc1-c1ccccc1`, the TGI was above 100 µM.

As to `CCO/C=N/NC(=O)CSc1nc2ccc(I)cc2c(=O)n1Cc1ccccc1`, the TGI is above 100 µM.

`CSc1nncc2[nH]c(C)nc12`: the TGI was above 100 µM.

With `CCOC(=O)c1ccc(C(=O)/C(C#N)=C2\CCCN2C)[nH]1`, the TGI was above 100 µM.

In the case of `COc1ccc(C(OC(C)=O)C2C(=C(C#N)C#N)c3ccccc3C2=C(C#N)C#N)cc1` (stereo not drawn), the TGI is above 100 µM.

The molecule `Oc1ccc(-c2nc(-c3ccc(F)cc3)c(-c3ccc4ccccc4n3)[nH]2)cc1` yielded a TGI of 27.9 µM.

On to `C[C@@]12CCC3C1C=C1C(=O)c4cc(O)ccc4C(=O)[C@]1(O2)[C@@]3(C)C=O`, for which the TGI turned out to be 12.6 µM.

Regarding `COC(=O)c1c(O)ccc2c1c1c(n2Cc2ccc(Cl)cc2Cl)C(=O)c2ccccc2C1`, the TGI was above 100 µM.

`Cc1ccc(C(=O)N/N=C(\N=Nc2ccccc2[N+](=O)[O-])c2ccc(N(C)C)cc2)cc1` yielded a TGI above 100 µM.

`CC(C)C1=C(Cc2ccccc2)C(=O)O/C1=C\c1cc(Cl)c(O)c(Cl)c1` showed a TGI of 37.4 µM.

`Cc1cc(OCc2nnc3n2N=C(c2cc(F)c(Cl)cc2Cl)/C(=C/c2ccc(Cl)cc2)S3)ccc1Cl` displayed a TGI above 100 µM.

In the next test the test system is OVCAR-3 ovarian. As to the kind of experiment: NCI-60 cell line screen, 48 h.
Regarding `N#C/C(N)=C(\C#N)NC=NCc1ccccc1`, the TGI is above 100 µM.

Regarding `Cc1c(O)c(C)c2c(C)cn(C(=O)C(C)(C)C)c2c1C`, the TGI is above 100 µM.

For the molecule `CN1C(=O)C(CC=O)(C(C)(C)C)c2ccccc21` (stereo not drawn), the TGI is above 100 µM.

With `COc1ccc(/C=N/n2c(-c3ccccc3)n[nH]c2=O)cc1`, the TGI is above 100 µM.

Turning to `CCO/C=N/NC(=O)CSc1nc2ccc(I)cc2c(=O)n1Cc1ccccc1`, the TGI is above 100 µM.

On to `CSc1nncc2[nH]c(C)nc12`, for which the TGI was above 100 µM.

As for `CCOC(=O)c1ccc(C(=O)/C(C#N)=C2\CCCN2C)[nH]1`, the TGI was above 100 µM.

Consider `COc1ccc(C(OC(C)=O)C2C(=C(C#N)C#N)c3ccccc3C2=C(C#N)C#N)cc1` (stereo not drawn), for which the TGI came to 50.6 µM.

Take `Oc1ccc(-c2nc(-c3ccc(F)cc3)c(-c3ccc4ccccc4n3)[nH]2)cc1`: the TGI stood at 20.3 µM.

For `C[C@@]12CCC3C1C=C1C(=O)c4cc(O)ccc4C(=O)[C@]1(O2)[C@@]3(C)C=O`, the TGI amounted to 12 µM.

As for `COC(=O)c1c(O)ccc2c1c1c(n2Cc2ccc(Cl)cc2Cl)C(=O)c2ccccc2C1`, the TGI was above 100 µM.

Consider `Cc1ccc(C(=O)N/N=C(\N=Nc2ccccc2[N+](=O)[O-])c2ccc(N(C)C)cc2)cc1`, for which the TGI was above 100 µM.

`CC(C)C1=C(Cc2ccccc2)C(=O)O/C1=C\c1cc(Cl)c(O)c(Cl)c1` displayed a TGI of 27.2 µM.

As for `Cc1cc(OCc2nnc3n2N=C(c2cc(F)c(Cl)cc2Cl)/C(=C/c2ccc(Cl)cc2)S3)ccc1Cl`, the TGI is above 100 µM.

The test system of the next test is PC-3 prostate. The test can be described thus: NCI-60 cell line screen, 48 h.
In turn, `N#C/C(N)=C(\C#N)NC=NCc1ccccc1` gave a TGI above 100 µM.

The molecule `Cc1c(O)c(C)c2c(C)cn(C(=O)C(C)(C)C)c2c1C` displayed a TGI of 38.5 µM.

Molecule `CN1C(=O)C(CC=O)(C(C)(C)C)c2ccccc21` (stereo not drawn) yielded a TGI above 100 µM.

In turn, `COc1ccc(/C=N/n2c(-c3ccccc3)n[nH]c2=O)cc1` yielded a TGI above 100 µM.

In turn, `O=C1C[C@H]2[C@@H](O1)[C@@H](O)CN1C(=O)c3ccccc3[C@H]21` gave a TGI above 100 µM.

`O=P(O)(Cc1ccccc1)c1ccccc1-c1ccccc1` returned a TGI above 100 µM.

As for `CCO/C=N/NC(=O)CSc1nc2ccc(I)cc2c(=O)n1Cc1ccccc1`, the TGI was above 100 µM.

Regarding `CSc1nncc2[nH]c(C)nc12`, the TGI is above 100 µM.

`CCOC(=O)c1ccc(C(=O)/C(C#N)=C2\CCCN2C)[nH]1` yielded a TGI above 100 µM.

In turn, `COc1ccc(C(OC(C)=O)C2C(=C(C#N)C#N)c3ccccc3C2=C(C#N)C#N)cc1` (stereo not drawn) had a TGI of 54.3 µM.

For `Oc1ccc(-c2nc(-c3ccc(F)cc3)c(-c3ccc4ccccc4n3)[nH]2)cc1`, the TGI was 22.6 µM.

Take `C[C@@]12CCC3C1C=C1C(=O)c4cc(O)ccc4C(=O)[C@]1(O2)[C@@]3(C)C=O`: the TGI came out at 19.5 µM.

Turning to `COC(=O)c1c(O)ccc2c1c1c(n2Cc2ccc(Cl)cc2Cl)C(=O)c2ccccc2C1`, the TGI is 73.3 µM.

Regarding `Cc1ccc(C(=O)N/N=C(\N=Nc2ccccc2[N+](=O)[O-])c2ccc(N(C)C)cc2)cc1`, the TGI is above 100 µM.

For `CC(C)C1=C(Cc2ccccc2)C(=O)O/C1=C\c1cc(Cl)c(O)c(Cl)c1`, the TGI was 31.1 µM.

In the case of `Cc1cc(OCc2nnc3n2N=C(c2cc(F)c(Cl)cc2Cl)/C(=C/c2ccc(Cl)cc2)S3)ccc1Cl`, the TGI came out at 65 µM.

In a further test the test system is RPMI-8226 leukemia. As to the kind of experiment: NCI-60 cell line screen, 48 h.
The molecule `N#C/C(N)=C(\C#N)NC=NCc1ccccc1` came in with a TGI above 100 µM.

`Cc1c(O)c(C)c2c(C)cn(C(=O)C(C)(C)C)c2c1C`: the TGI is 84.5 µM.

`CN1C(=O)C(CC=O)(C(C)(C)C)c2ccccc21` (stereo not drawn): the TGI was above 100 µM.

In turn, `COc1ccc(/C=N/n2c(-c3ccccc3)n[nH]c2=O)cc1` displayed a TGI above 100 µM.

Molecule `O=C1C[C@H]2[C@@H](O1)[C@@H](O)CN1C(=O)c3ccccc3[C@H]21` had a TGI above 100 µM.

Consider `CCO/C=N/NC(=O)CSc1nc2ccc(I)cc2c(=O)n1Cc1ccccc1`, for which the TGI was above 100 µM.

Consider `CSc1nncc2[nH]c(C)nc12`, for which the TGI was above 100 µM.

In turn, `CCOC(=O)c1ccc(C(=O)/C(C#N)=C2\CCCN2C)[nH]1` gave a TGI above 100 µM.

In turn, `COc1ccc(C(OC(C)=O)C2C(=C(C#N)C#N)c3ccccc3C2=C(C#N)C#N)cc1` (stereo not drawn) came in with a TGI of 60.4 µM.

As for `Oc1ccc(-c2nc(-c3ccc(F)cc3)c(-c3ccc4ccccc4n3)[nH]2)cc1`, the TGI is above 100 µM.

In turn, `C[C@@]12CCC3C1C=C1C(=O)c4cc(O)ccc4C(=O)[C@]1(O2)[C@@]3(C)C=O` registered a TGI of 9.01 µM.

For `COC(=O)c1c(O)ccc2c1c1c(n2Cc2ccc(Cl)cc2Cl)C(=O)c2ccccc2C1`, the TGI stood at 49 µM.

Molecule `Cc1ccc(C(=O)N/N=C(\N=Nc2ccccc2[N+](=O)[O-])c2ccc(N(C)C)cc2)cc1` displayed a TGI above 100 µM.

The molecule `CC(C)C1=C(Cc2ccccc2)C(=O)O/C1=C\c1cc(Cl)c(O)c(Cl)c1` yielded a TGI of 65.6 µM.

Take `Cc1cc(OCc2nnc3n2N=C(c2cc(F)c(Cl)cc2Cl)/C(=C/c2ccc(Cl)cc2)S3)ccc1Cl`: the TGI stood at 33.2 µM.

In a further test the test system is SK-MEL-2 melanoma. As to the kind of experiment: NCI-60 cell line screen, 48 h.
Molecule `N#C/C(N)=C(\C#N)NC=NCc1ccccc1` came in with a TGI above 100 µM.

On to `Cc1c(O)c(C)c2c(C)cn(C(=O)C(C)(C)C)c2c1C`, for which the TGI is 43.4 µM.

`CN1C(=O)C(CC=O)(C(C)(C)C)c2ccccc21` (stereo not drawn): the TGI is above 100 µM.

For `COc1ccc(/C=N/n2c(-c3ccccc3)n[nH]c2=O)cc1`, the TGI is above 100 µM.
